The text below walks through data of patent US20070049518A1, “Novel method of treatment of inflammatory skin conditions” (priority 2005, published 2007).

In assay [1] the target is T1, purified aureolysin type I (Staphylococcus aureus, UniProt P81177).
T1 construct: purchased BioCentrum Ltd
The assay can be described thus: biochemical.

Assay [2] has as its target T2, purified aureolysin type II (Staphylococcus aureus, UniProt P81177).
T2 sequence (P81177 1-509): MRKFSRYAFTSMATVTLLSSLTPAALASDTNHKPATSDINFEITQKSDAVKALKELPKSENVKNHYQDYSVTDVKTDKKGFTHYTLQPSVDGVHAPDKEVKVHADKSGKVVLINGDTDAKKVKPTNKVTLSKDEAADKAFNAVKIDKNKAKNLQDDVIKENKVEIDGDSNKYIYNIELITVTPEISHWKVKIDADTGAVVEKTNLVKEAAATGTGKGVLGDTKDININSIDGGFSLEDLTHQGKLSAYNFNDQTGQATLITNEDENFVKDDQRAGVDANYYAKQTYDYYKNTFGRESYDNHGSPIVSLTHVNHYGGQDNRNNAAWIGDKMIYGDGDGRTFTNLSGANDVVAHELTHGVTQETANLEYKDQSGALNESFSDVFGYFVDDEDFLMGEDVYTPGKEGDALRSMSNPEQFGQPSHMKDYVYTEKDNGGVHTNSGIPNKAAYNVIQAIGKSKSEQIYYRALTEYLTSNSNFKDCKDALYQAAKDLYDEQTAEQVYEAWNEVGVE
The assay can be described thus: Aureolysin enzyme inhibition assay, type II. Type of assay: biochemical.

The target of assay [3] is T3, human MMP-1 (Homo sapiens, UniProt P03956).
T3 construct: purchased Calbiochem
T3 sequence (P03956 100-469): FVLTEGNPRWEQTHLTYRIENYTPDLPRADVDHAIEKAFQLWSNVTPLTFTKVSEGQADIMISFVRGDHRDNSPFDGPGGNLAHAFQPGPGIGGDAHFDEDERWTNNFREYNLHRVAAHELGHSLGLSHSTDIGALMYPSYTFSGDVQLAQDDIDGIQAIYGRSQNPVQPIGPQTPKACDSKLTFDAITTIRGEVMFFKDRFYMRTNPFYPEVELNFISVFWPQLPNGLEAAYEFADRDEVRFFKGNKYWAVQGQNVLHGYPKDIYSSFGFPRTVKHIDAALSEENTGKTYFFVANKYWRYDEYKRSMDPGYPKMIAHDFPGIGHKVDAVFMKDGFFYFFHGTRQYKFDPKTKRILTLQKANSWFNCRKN
Kind of assay: MMP enzyme inhibition assay, MMP-1. Type of assay: biochemical. To be noted: for IC50: pH 7.5, 37° C., 1 hour.

The target of assay [4] is T4, human MMP-2 (Homo sapiens, UniProt P08253).
T4 construct: purchased Calbiochem
T4 sequence (P08253 110-660): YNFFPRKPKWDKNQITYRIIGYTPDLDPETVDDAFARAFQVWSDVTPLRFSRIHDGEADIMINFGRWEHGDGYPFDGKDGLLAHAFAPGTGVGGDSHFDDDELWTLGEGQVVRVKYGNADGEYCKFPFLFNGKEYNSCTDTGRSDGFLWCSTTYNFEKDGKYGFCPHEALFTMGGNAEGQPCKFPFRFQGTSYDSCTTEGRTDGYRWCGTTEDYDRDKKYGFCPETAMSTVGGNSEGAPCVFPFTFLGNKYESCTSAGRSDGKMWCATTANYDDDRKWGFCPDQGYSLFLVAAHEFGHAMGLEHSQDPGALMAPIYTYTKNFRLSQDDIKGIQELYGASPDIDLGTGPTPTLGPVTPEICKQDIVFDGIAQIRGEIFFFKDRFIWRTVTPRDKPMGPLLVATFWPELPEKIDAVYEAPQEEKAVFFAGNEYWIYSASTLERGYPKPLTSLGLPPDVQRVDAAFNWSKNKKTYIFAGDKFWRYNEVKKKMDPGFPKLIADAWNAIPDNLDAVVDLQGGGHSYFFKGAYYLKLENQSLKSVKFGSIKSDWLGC
Kind of assay: MMP enzyme inhibition assay, MMP-2. Type of assay: biochemical. As to conditions: for IC50: pH 7.5, 37° C., 1 hour.

Assay [5] has as its target T5, human MMP-8 (Homo sapiens, UniProt P22894).
T5 construct: purchased Calbiochem
The assay can be described thus: MMP enzyme inhibition assay, MMP-8. The assay is classed as biochemical. As to conditions: for IC50: pH 7.5, 37° C., 1 hour.

Assay [6] addresses T6, human MMP-9 (Homo sapiens, UniProt P14780).
T6 construct: purchased Calbiochem
Kind of assay: MMP enzyme inhibition assay, MMP-9. To be noted: for IC50: pH 7.5, 37° C., 1 hour. The assay is classed as biochemical.

Assay [7] concerns the target T7, metalloprotease (aureolysin) activity in Staphylococcus aureus 8325-4 culture supernatants (Staphylococcus aureus, UniProt P81177).
T7 construct: 4 μl S. aureus culture supernatant; endogenous in cells; host or cells: Staphylococcus aureus 8325-4 (culture supernatant)
Kind of assay: Metalloprotease activity in S. aureus culture supernatants. The assay is classed as biochemical. The protocol: The culture was then centrifuged to remove the cells and the supernatant stored at −70° C. for subsequent use. […] Activity was expressed as the rate of increase in fluorescence as a function of time.

The target of assay [8] is aureolysin (Staphylococcus aureus, UniProt P81177). The assay can be described thus: Inhibition of aureolysin-mediated pro-uPA activation. As to conditions: for Urokinase activity after pro-uPA activation: Expt. 2, Compound 13 20 μM, pH 5.6.
From the text: Under these conditions the extent of pro-uPA cleavage as assessed by uPA activity was directly proportional to the concentration of aureolysin in the assay.
Assay [9] has as its system S. aureus ATCC 27733 or 8325-4. Kind of assay: Milk agar plate assay of S. aureus protease activity. The assay is classed as cell-based, Staphylococcus aureus. To be noted: FIG. 2. Here is the method:
In a second assay for measuring S. aureus protease activity directly, S. aureus ATCC 27733 or 8325-4 was cultured on 10% (v/v) skimmed milk agar plates containing 2% (v/v) DMSO with or without compound. Compounds dissolved in DMSO were incorporated into the solid medium immediately prior to pouring.

The subject of assay [10] is Human skin epidermal keratinocytes. The assay can be described thus: Keratinocyte activation, IL-8 production. The assay is classed as cell-based. As to conditions: 48 hours, aureolysin 50 μg/ml. From the text:
Activated keratinocytes produce IL-8, a proinflammatory chemokine. Many bacterial products cause the activation of keratinocytes. Aureolysin may be evaluated for its effects on IL-8 production by keratinocytes. Human skin epidermal keratinocytes (TCS Cellworks) are maintained as per instructions. Proliferating cultures are trypsinised, harvested, treated with a trypsin inhibitor and resuspended in growth medium at approximately 50,000 cells/well, to provide confluent monolayers in 96 well plates. Cells are incubated overnight at 37° C. at 5% CO2 to allow recovery, the spent medium aspirated from the wells and replaced with fresh growth medium. The cells are incubated at 37° C. at 5% CO2 for a further 24 or 48 hours with aureolysin or buffer control.
The supernatants are removed from each well and the concentration of IL-8 is determined using a human IL-8 ELISA development kit from R&D systems (Catalog Number: DY208) using the manufacturers instructions.
In these experiments, the cells are incubated at 37° C. at 5% CO2 for 48 hours with aureolysin or buffer control. Poly IC and lipoteichoic acid (LTA), which stimulate IL-8 production in keratinocytes were used as positive controls.

The test system of assay [11] is S. aureus 8325-4. The assay can be described thus: S. aureus growth by turbidometry in micro-titre plates. The assay is classed as cell-based, Staphylococcus aureus. As to conditions: Staphylococcus aureus, 83254, read-out: IC50 value (50% decrease in terminal absorbance); overnight, absorbance 620 nm. Here is the method: Tryptic soy broth (0.18 ml) containing S. aureus 8325-4 (approximately 10^5 cells) was mixed with 20 μl 20% (v/v) DMSO vehicle±compound in the wells of a flat-bottomed clear polystyrene 96-well micro-titre plate. The plate was incubated overnight at 37° C./220 rpm and the absorbance measured at 620 nm the following day.

The mark [12] stands for this setting: pH 6.8, 37° C., 1 hour; read-out: IC50 value Aureolysin type II.

Several values for one entry are separate records, joined by “and”; a condition that tells them apart may be missing. Identical values can stand only once. Like-named read-outs stand apart in the source and are kept apart here.

T5 sequence (P22894 101-467): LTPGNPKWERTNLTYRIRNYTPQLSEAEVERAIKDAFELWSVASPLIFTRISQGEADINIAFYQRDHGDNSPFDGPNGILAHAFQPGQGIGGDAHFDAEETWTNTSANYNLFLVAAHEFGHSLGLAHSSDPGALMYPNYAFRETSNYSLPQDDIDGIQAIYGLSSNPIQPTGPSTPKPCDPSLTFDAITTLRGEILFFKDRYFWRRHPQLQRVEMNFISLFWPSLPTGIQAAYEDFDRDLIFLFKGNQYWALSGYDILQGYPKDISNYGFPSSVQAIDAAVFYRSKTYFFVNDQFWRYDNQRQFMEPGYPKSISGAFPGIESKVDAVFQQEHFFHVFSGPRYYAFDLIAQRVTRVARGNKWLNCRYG
T6 sequence (P14780 94-707): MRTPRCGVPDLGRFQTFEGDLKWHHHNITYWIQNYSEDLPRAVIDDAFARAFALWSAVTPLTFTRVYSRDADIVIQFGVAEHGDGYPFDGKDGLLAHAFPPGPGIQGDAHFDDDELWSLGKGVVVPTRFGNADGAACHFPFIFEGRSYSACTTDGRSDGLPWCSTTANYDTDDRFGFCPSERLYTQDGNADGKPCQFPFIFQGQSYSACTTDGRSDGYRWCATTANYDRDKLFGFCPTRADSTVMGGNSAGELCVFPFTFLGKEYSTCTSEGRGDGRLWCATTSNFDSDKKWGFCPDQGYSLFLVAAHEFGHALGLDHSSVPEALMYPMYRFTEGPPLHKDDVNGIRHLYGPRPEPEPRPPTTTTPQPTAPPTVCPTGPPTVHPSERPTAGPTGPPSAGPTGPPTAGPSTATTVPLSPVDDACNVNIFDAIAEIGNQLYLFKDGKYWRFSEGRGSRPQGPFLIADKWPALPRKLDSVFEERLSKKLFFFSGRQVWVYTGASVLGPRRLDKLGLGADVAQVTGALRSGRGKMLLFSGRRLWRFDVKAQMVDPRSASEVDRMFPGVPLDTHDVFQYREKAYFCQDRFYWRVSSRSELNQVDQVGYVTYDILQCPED

As to `CNC(=O)C(CCc1ccccc1)NC(=O)C(CC(=O)NO)CC(C)C` (stereo not shown) [Compound 13], the half-inhibitory concentration (IC50) was 0.33 µM in assay [1]; 0.69 µM in assay [2] (setting [12]); 0.0056 µM in assay [3]; 0.0011 µM in assay [4]; 0.0016 µM in assay [5]; 0.0019 µM in assay [6]. Further, half-maximal inhibition in assay [7] (IC50) was put at 0.69 µM. In addition, the “Urokinase activity after pro-uPA activation” value in assay [8] (aureolysin 0 μg/ml) stood at 0.11 A405/0.5 h/μg; in assay [8] (aureolysin 0.1 μg/ml) it was 0.36 A405/0.5 h/μg; in assay [8] (aureolysin 0.3 μg/ml), 0.52 A405/0.5 h/μg; in assay [8] (aureolysin 0.8 μg/ml) it was 0.96 A405/0.5 h/μg. Also, the inhibition at 20 µM in [8] (pH 5.6, read-out: inhibition of aureolysin activation of pro-uPA) was at least 82%.
`CO[C@H](C(=O)NO)[C@@H](CC(C)C)C(=O)N[C@H](C(=O)Nc1ccccn1)C(C)(C)C` [Compound 7, solimastat]: the IC50 turned out to be 2.2 µM in assay [1]; 3.5 µM in [2] (setting [12]); 0.0033 µM in assay [3]; 0.0032 µM in assay [4]; 0.0017 µM in assay [5]; 0.0051 µM in [6]. This compound also gave an IC50 in [7] of 4.5 µM.
Turning to `CNC(=O)[C@H](Cc1c[nH]c2ccccc12)NC(=O)[C@@H](CC(=O)NO)CC(C)C` [Compound 1, ilomastat], the IC50 was determined as 0.26 µM in assay [1], 0.43 µM in assay [2] (setting [12]) and 0.57 µM in assay [7].
As for `CC(C)C[C@@H](C(=O)N[C@H](C(=O)Nc1ccccn1)C(C)(C)C)[C@H](O)C(=O)NO` [Compound 9], the IC50 in [1] was 1.5 µM; in [2] (setting [12]), 2.4 µM; in assay [3] it was 0.0031 µM; in assay [4], 0.0018 µM; in [5], 0.0017 µM; in assay [6], 0.0041 µM. Further, the IC50 in assay [7] was 2.9 µM.
As for `CNC(=O)[C@@H](NC(=O)[C@H](CC(C)C)[C@H](O)C(=O)NO)C(C)(C)C` [Compound 3, marimastat], the “inhibition of proteolytic activity, zone of clearance of milk proteins (in words)” value in assay [9] is given as “inhibition of proteolytic activity”.
As for `CNC(=O)[C@H](CCc1ccccc1)NC(=O)[C@H](CC(=O)NO)CC(C)C` [Compound 16, (S)—N4-hydroxy-2-isobutyl-N1-((S)-1-(methylamino)-1-oxo-4-phenylbutan-2-yl)succinamide], the IC50 in assay [1] amounted to 0.057 µM; in assay [2] (setting [12]) it was 0.093 µM; in assay [3] it was 6.2 µM; in assay [4], 2.1 µM; in [5], 1.6 µM; in [6], 2 µM. Besides, the IC50 in assay [7] stood at 0.095 µM.
On to lipoteichoic acid [LTA], for which the “IL-8 ± SE” value in assay [10] was 454 pg/mL and 454 ± 61.0 pg/mL.
For the compound `COc1ccc(S(=O)(=O)N(CC(=O)NO)CC(C)C)cc1` [Compound 14], the IC50 in [1] amounted to 1 µM; in [2] (read-out: IC50 value Aureolysin type II; pH 6.8, 37° C., 1 hour), 2.5 µM; in assay [4] it was 0.0046 µM; in [5] it was 0.021 µM; in [6], 0.01 µM; in assay [7], 3.6 µM.
Turning to `CC(C)C[C@H](NP(=O)(O)O[C@@H]1O[C@@H](C)[C@H](O)[C@@H](O)[C@H]1O)C(=O)N[C@@H](Cc1c[nH]c2ccccc12)C(=O)O` [Compound 15, phosphoramidon], the IC50 in assay [1] turned out to be 2.8 µM; in assay [2] (setting [12]), 2.3 µM; in assay [7], 3.3 µM. Moreover, the inhibition at 2.7 µM in [3] (@ 2.7 μM), in assay [4] (@ 2.7 μM), in assay [5] (@ 2.7 μM) and in assay [6] (@ 2.7 μM) was 0% throughout.
Consider `CNC(=O)[C@H](CCc1ccccc1)NC(=O)[C@@H](CC(=O)NO)CC(C)C` [Compound 17, (R)—N4-hydroxy-2-isobutyl-N1-((S)-1-(methylamino)-1-oxo-4-phenylbutan-2-yl)succinamide], for which the 50% inhibitory concentration (IC50) in [1] was 1.2 µM; in assay [2] (setting [12]), 2.3 µM; in assay [3] it was 0.017 µM; in assay [4], 0.0024 µM; in [5], 0.0044 µM; in [6], 0.0059 µM. The compound further showed a concentration for half-maximal inhibition (IC50) in assay [7] of 2.3 µM.
Take `CC(C)C[C@@H](C(=O)N[C@H](C(=O)N(C)C)C(C)(C)C)[C@H](O)C(=O)NO` [Compound 5]: the IC50 in assay [1] was determined as 27 µM; in assay [2] (setting [12]) it was 41 µM; in [3], 0.011 µM; in assay [4], 0.0077 µM; in assay [5], 0.0039 µM; in assay [6], 0.03 µM. For the same compound, the midpoint of inhibition in assay [7], the IC50, lay at 44 µM.
Turning to `CCCCC[C@H](CC(=O)NO)C(=O)N[C@H](C(=O)N1CCC[C@H]1CO)C(C)C` [Actinonin, actinonin, reference compound], in assay [11], the IC50 amounted to 2.6 µM.
Poly IC: in assay [10], the “IL-8 ± SE” value is 282 pg/mL and 282 ± 0.9 pg/mL.

As usually defined, the IC50 is the concentration that inhibits the measured activity by half. One may read the inhibition as the change of the read-out against control, counted positive when it falls.
